Reference: patent publication US7427601B2, “Method for treating tremor” (Schwarz Pharma AG, priority 2004, dated 2008)

Tested on: harmaline-induced tremors
Assay: Harmaline-induced tremors in rats
Format: in vivo, Male Sprague-Dawley rats
Settings: for Intensity of tremors after harmaline administration (score), Mean ± S.E.M.: scale 0 to 4
Experimental: Male Sprague-Dawley rats (Charles River Laboratories, France) were used. During the acclimatization period, animals were housed 2 per cage, in Makrolon type III cages, in the animal room (temperature: 20±2° C., humidity: minimum 45%, air changes: >12 per hour, light/dark cycle of 12 h/12 h [on at 7:00 A.M.]). Animals were allowed a minimum of 5 days period before experiment for acclimatization.
Harmaline HCl (Sigma) was diluted in saline and injected at 20 mg/kg, i.p. The reference compound, propanolol was injected i.p. at 20 mg/kg, 30 min before harmaline administration. SPM 927 was given i.p. at 3, 10 and 30 mg/kg, 30 min before harmaline administration.
The following parameters were assessed by an observer blind to the treatment of the animals. • Intensity: from 0 to 4 (0: no tremor, 1: mild tremor, 2: moderate intermittent tremor, 3: moderate persistent tremor, 4: pronounced severe tremor). Intensity will be scored every 30 min and for a total period of 120 min after harmaline administration. • Latency of onset • Total duration of tremor (max observation time: 120 min) • % rat displaying tremor

In the case of `COC[C@@H](NC(C)=O)C(=O)NCc1ccccc1` [SPM 927, (R)-2-acetamide-N-benzyl-3-methoxypropionamide], the “Intensity of tremors after harmaline administration (score), Mean ± S.E.M.” value (“Intensity of tremors … Mean ± S.E.M.” for short) (3 mg/kg i.p. 30 min before harmaline (20 mg/kg i.p.), +30 min) was 2.0 ± 0.4 score, the “Intensity of tremors … Mean ± S.E.M.” value (3 mg/kg i.p. 30 min before harmaline (20 mg/kg i.p.), +60 min) was 2.0 ± 0.3 score and the “Intensity of tremors … Mean ± S.E.M.” value (3 mg/kg i.p. 30 min before harmaline (20 mg/kg i.p.), +90 min) was 2.1 ± 0.4 score. The “Intensity of tremors … Mean ± S.E.M.” value (3 mg/kg i.p. 30 min before harmaline (20 mg/kg i.p.), +120 min) was 1.8 ± 0.4 score, the “Intensity of tremors … Mean ± S.E.M.” value (10 mg/kg i.p. 30 min before harmaline (20 mg/kg i.p.), +30 min) was 2.0 ± 0.2 score and the “Intensity of tremors … Mean ± S.E.M.” value (10 mg/kg i.p. 30 min before harmaline (20 mg/kg i.p.), +60 min) was 1.1 ± 0.3 score. The “Intensity of tremors … Mean ± S.E.M.” value (10 mg/kg i.p. 30 min before harmaline (20 mg/kg i.p.), +90 min) was 2.2 ± 0.4 score, the “Intensity of tremors … Mean ± S.E.M.” value (10 mg/kg i.p. 30 min before harmaline (20 mg/kg i.p.), +120 min) was 1.3 ± 0.3 score and the “Intensity of tremors … Mean ± S.E.M.” value (30 mg/kg i.p. 30 min before harmaline (20 mg/kg i.p.), +30 min) was 0.9 ± 0.4 score. For the same molecule, the “Intensity of tremors … Mean ± S.E.M.” value (30 mg/kg i.p. 30 min before harmaline (20 mg/kg i.p.), +60 min) was 1.1 ± 0.3 score, the “Intensity of tremors … Mean ± S.E.M.” value (30 mg/kg i.p. 30 min before harmaline (20 mg/kg i.p.), +90 min) was 1.4 ± 0.3 score and the “Intensity of tremors … Mean ± S.E.M.” value (30 mg/kg i.p. 30 min before harmaline (20 mg/kg i.p.), +120 min) was 1.2 ± 0.2 score. For the same molecule, the “intensity of harmaline-induced tremors (in words)” value (given at 3, 10 and 30 mg/kg) was “reduced the intensity of harmaline-induced tremors in a dose dependent manner”, the “maximal efficacy on tremor intensity compared with propranolol (in words)” value (highest dose tested (30 mg/kg) versus propranolol 20 mg/kg) was “higher than that of the positive reference compound propranolol” and the “intensity of harmaline-induced tremor (in words)” value (rats, summary statement) was “reduced”. The “latency of tremor onset following harmaline injection (in words)” value (rats, summary statement) was “markedly increased” and the “total duration of harmaline-induced tremor (in words)” value (rats, summary statement) was “reduced”.

With `CC(C)NCC(O)COc1cccc2ccccc12` (stereo not shown) [Propranolol, reference compound] the “Intensity of tremors … Mean ± S.E.M.” value (20 mg/kg i.p. 30 min before harmaline (20 mg/kg i.p.), +30 min) was 1.6 ± 0.2 score, the “Intensity of tremors … Mean ± S.E.M.” value (20 mg/kg i.p. 30 min before harmaline (20 mg/kg i.p.), +60 min) was 2.3 ± 0.3 score and the “Intensity of tremors … Mean ± S.E.M.” value (20 mg/kg i.p. 30 min before harmaline (20 mg/kg i.p.), +90 min) was 1.6 ± 0.3 score. The “Intensity of tremors … Mean ± S.E.M.” value (20 mg/kg i.p. 30 min before harmaline (20 mg/kg i.p.), +120 min) was 1.4 ± 0.3 score and the “intensity of tremors (in words)” value (20 mg/kg, each time-point of observation) was “reduced the intensity of tremors in a statistically significant manner”.
